Assay results reported in patent US5376371A, “Compositions for treating fat deposits in humans” (Indena S.p.A., priority 1989, dated 1994).

Experiments:
[1] = target: phosphodiesterase; test: Phosphodiesterase inhibition, cyclic AMP substrate; type: biochemical; conditions: 1 μM substrate; read-out: I50 Cyclic AMP
Method: (§1) The determination of the phosphodiesterase activity was carried out according to the method of Beretz et al. (Experientia, 34,1054,1977). The method consists in measuring (3H) products resulting from incubation of (3H)-c-AMP with the phosphodiesterase preparation and with an excess of […]. An anion exchange resin was used in a batch process to remove the residual substrate. The inibition of PDE by flavonoids was studied in experiments in which the concentration of c-AMP was held constant at 1 μM.
(§2) Assays were performed with 1 μM substrate, I50 was calculated as described above.

[2] = target: phosphodiesterase; test: Phosphodiesterase inhibition, cyclic GMP substrate; type: biochemical; conditions: 1 μM substrate; read-out: I50 Cyclic GMP
Method: as §1, §2

[3] = system: phosphodiesterase; conditions: stated as known; cited from earlier work

Row | IC50 [1] | IC50 [2] | Compound | inhibition of phosphodiesterase [3]
1 | 0.65 µM | 0.58 µM | O=c1cc(-c2ccc(O)c(-c3c(O)cc(O)c4c(=O)cc(-c5ccc(O)cc5)oc34)c2)oc2cc(O)cc(O)c12 [Amentoflavone, amentoflavone] | powerful inhibitor of phosphodiesterase
2 | 0.88 µM | 0.49 µM | ginkgonetine | 
3 | 2000 µM | 235 µM | O=C(O)c1cc(=O)c2c(OCC(O)COc3cccc4oc(C(=O)O)cc(=O)c34)cccc2o1 [Cromoglycate Na, reference compound] | 

Row | Compound | IC50 [1] | IC50 [2] | inhibition of phosphodiesterase [3]
4 | COc1ccc(Cc2nccc3cc(OC)c(OC)cc23)cc1OC [Papaverine, reference compound] | 5 µM | 12.4 µM | 
